Consider three molecules from patent US7495027B2, “3-aryl-4-hydroxyfuranone compounds and the human and animal health use thereof” (Wyeth, priority 2003, dated 2009).

SMILES strings stand for the structures. Values after ≈ are worked out from the molar mass of the structure shown.

Sequence of E. coli Enopyruvyl-UPD-N-acetylglucosamine reductase, Mur B (P08373 whole entry): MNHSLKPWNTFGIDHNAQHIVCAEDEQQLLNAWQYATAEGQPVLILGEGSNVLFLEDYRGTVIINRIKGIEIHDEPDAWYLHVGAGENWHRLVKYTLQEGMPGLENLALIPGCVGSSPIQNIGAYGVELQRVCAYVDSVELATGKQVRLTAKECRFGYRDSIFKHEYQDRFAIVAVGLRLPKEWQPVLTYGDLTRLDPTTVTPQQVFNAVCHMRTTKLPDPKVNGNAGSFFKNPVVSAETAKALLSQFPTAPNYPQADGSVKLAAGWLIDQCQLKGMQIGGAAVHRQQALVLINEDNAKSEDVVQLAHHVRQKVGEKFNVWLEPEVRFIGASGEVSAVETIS
Sequence of E. coli Uridine-diphosphate-N-acetvimuramoyl: L-alanine lipase, MurC (P17952 whole entry): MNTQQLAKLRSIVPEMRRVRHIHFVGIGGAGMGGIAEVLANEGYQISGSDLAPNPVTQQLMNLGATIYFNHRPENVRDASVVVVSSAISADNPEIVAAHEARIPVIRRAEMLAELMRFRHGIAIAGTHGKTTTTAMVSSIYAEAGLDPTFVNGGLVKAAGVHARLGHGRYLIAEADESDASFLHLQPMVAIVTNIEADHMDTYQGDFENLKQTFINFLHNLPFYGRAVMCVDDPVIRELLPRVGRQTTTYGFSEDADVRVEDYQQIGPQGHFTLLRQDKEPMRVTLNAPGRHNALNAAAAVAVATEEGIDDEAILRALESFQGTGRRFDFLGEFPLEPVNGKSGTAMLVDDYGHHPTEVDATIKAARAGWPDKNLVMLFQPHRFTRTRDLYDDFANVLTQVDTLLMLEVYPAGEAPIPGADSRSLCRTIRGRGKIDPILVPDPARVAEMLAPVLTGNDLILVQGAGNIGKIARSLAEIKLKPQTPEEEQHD
Sequence of E. coli UDP-N-acetylglucosamine enolpyruvoyl transferase, MurA (P0A749 whole entry): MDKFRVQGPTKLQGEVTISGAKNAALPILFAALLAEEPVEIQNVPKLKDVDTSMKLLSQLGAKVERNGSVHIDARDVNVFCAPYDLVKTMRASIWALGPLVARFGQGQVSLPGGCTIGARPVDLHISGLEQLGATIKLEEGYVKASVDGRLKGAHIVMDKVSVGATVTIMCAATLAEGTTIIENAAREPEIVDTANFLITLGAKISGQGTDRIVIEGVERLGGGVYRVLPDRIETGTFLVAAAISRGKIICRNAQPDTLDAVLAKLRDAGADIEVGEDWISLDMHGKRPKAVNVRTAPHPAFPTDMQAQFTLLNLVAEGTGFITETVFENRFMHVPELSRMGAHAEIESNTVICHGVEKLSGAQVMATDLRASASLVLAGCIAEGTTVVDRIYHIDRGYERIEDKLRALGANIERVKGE
Sequence of E. coli Uridine-diphosphate-N-acetylmuramoyl-L-alanine: D-glutamate liease, MurD (P14900 whole entry): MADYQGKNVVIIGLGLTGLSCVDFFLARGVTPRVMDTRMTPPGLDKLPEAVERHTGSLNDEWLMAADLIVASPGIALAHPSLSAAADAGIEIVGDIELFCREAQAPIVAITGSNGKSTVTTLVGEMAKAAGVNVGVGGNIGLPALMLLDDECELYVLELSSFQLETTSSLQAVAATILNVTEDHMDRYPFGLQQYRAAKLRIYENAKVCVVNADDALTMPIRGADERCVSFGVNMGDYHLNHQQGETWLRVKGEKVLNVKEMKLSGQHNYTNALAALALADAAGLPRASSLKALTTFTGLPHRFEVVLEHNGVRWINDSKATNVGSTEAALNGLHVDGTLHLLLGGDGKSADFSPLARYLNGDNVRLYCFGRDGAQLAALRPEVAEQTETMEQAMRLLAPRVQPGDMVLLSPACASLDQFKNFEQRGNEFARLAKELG

In the first experiment the target is E. coli UDP-N-acetylglucosamine enolpyruvoyl transferase, MurA (Escherichia coli, UniProt P0A749). Kind of experiment: biochemical. To be noted: (E) E. coli enzyme. How it is done:
Evaluation of the Inhibitory Activity of Test Compounds Against Enzymes which Catalyze Bacterial Cell Wall Biosynthesis
S. aureus and E. coli UDP-N-acetylglucosamine enolpyruvoyl transferase, MurA
(§1) Preparation of Enzyme Solution:
The enzyme solution is prepared by admixing the following: 50 mM Tris/HCl pH 8.0, […] 1 M Tris, 5 mM DTT, […] 1 M DTT, 20% Glycerol 4 ml 50% Glycerol, add water to 10 ml.
(§2) Preparation of Stop Solution:
A procedure similar to that described by C. […] Experiments are performed by adding a solution of test compound (in a mixture of dimethylsulfoxide and water) and an enzyme solution to a well. After a pre-incubation period of 10 mintues at 37° C., Tris/BME buffer and assay buffer are added. A start point optical density (OD0) reading is taken at 340 nm immediately following the addition of assay buffer. After incubation for 1 hr at 37° C., the stop solution is added and the color is allowed to develop for 30 minutes.
Regarding `CC(C)(C)c1ccc(-c2ccc(C3=C(O)/C(=C/c4ccc(Cl)c(C(F)(F)F)c4)OC3=O)cc2)cc1` [Example 123], the IC50 is 42.1 µM.

`CCOc1ccc(-c2ccc(C3=C(O)/C(=C/c4ccc(Cl)c(C(F)(F)F)c4)OC3=O)cc2)cc1` [Example 124] had an IC50 of 28.8 µM.

In turn, `O=C1O/C(=C\c2cc(C(F)(F)F)ccc2Cl)C(O)=C1c1ccc(-c2ccccc2)cc1` [Example 125] showed an IC50 of 9.03 µM.

Another experiment has as its target E. coli Enopyruvyl-UPD-N-acetylglucosamine reductase, Mur B (Escherichia coli, UniProt P08373). Kind of experiment: biochemical. To be noted: (E) E. coli enzyme; read-out: MurB IC50 (converted). Here is the method:
S. aureus and E. coli Enopyruvyl-UPD-N-acetylglucosamine reductase, Mur B
Preparation of Tris/BME buffer:
Dilute 17.5 uL of aqueous 5 mM BME (2-mercaptoethanol) to 50 mL with 50 mM Tris/HCl (pH 8.0).
as §1
Dilute aqueous MurB stock solution (0.94 mg/mL) with 200 parts 50 mM Tris/2-BME buffer.
Synthesis of Substrate for MurB (MurA Product EP-UDP-GluNAc):
A mixture of 13 mg UDP-N-acetylglucosamine and 5.5 mg phosphoenolpyruvate are dissolved in 10 mL Tris/BME buffer forming 2 mM concentrations of each reagent in solution.
Preparation of Assay Buffer:
The assay buffer is prepared in water from reagents with the following final concentrations: 100 mM Tris/HCl (pH 8.0), 200 μM NADPH, 100 μM MurB substrate, 10 μM 2-mercaptoethanol, and 10 μM KCl.
Experiments are performed by adding 20 μL of a solution of test compound in a mixture of dimethylsulfoxide and water and 30 μL of enzyme solution to a well. After a pre-incubation period of 20 mins. at 23° C., 50 μL of Tris/BME buffer and 100 μL of assay buffer are added. […] Controls are performed using the same procedure and employing 20 μL of a blank dimethylsulfonide and solvent mixture in place of the test compound solution.
Using these values, the IC50 for each test compound is determined by linear regression analysis.
Consider `CC(C)(C)c1ccc(-c2ccc(C3=C(O)/C(=C/c4ccc(Cl)c(C(F)(F)F)c4)OC3=O)cc2)cc1` [Example 123], for which the IC50 was 6.01 µM.

Turning to `CCOc1ccc(-c2ccc(C3=C(O)/C(=C/c4ccc(Cl)c(C(F)(F)F)c4)OC3=O)cc2)cc1` [Example 124], the IC50 is 24.6 µM.

In the case of `O=C1O/C(=C\c2cc(C(F)(F)F)ccc2Cl)C(O)=C1c1ccc(-c2ccccc2)cc1` [Example 125], the IC50 is 11.3 µM.

The next experiment has as its target E. coli Uridine-diphosphate-N-acetvimuramoyl: L-alanine lipase, MurC (Escherichia coli, UniProt P17952). Kind of experiment: Inhibitory activity against MurC (E. coli). The note with it: (E) E. coli enzyme; read-out: MurC IC50 (converted). In kind it is biochemical.
Consider `CC(C)(C)c1ccc(-c2ccc(C3=C(O)/C(=C/c4ccc(Cl)c(C(F)(F)F)c4)OC3=O)cc2)cc1` [Example 123], for which the IC50 was above 50.1 µM.

For `CCOc1ccc(-c2ccc(C3=C(O)/C(=C/c4ccc(Cl)c(C(F)(F)F)c4)OC3=O)cc2)cc1` [Example 124], the IC50 is above 51.3 µM.

In the case of `O=C1O/C(=C\c2cc(C(F)(F)F)ccc2Cl)C(O)=C1c1ccc(-c2ccccc2)cc1` [Example 125], the IC50 is 2.26 µM.

A further experiment has as its target E. coli Uridine-diphosphate-N-acetylmuramoyl-L-alanine: D-glutamate liease, MurD (Escherichia coli, UniProt P14900). In words: biochemical. To be noted: (E) E. coli enzyme. Here is the method: S. aureus and E. coli Uridine-diphosphate-N-acetylmuramoyl-L-alanine: D-glutamate liease, MurD
The buffer is prepared from aqueous reagents with the following final concentrations: 83 mM Tris/HCl (pH 8.0), 50 mM MgCl2, and 2 mM ATP.
as §1
Preparation of Test Compound Solutions:
All test solutions are prepared in DMSO as 10 mg/mL, then diluted with 50 mM Tris/HCl (pH 8.5) to 100 μg/mL.
as §2
In this evaluation, the inhibitory activity of a test compound against MurD, the enzyme which catalyzes the fourth step of bacterial cell wall biosynthesis is determined.
As for `CC(C)(C)c1ccc(-c2ccc(C3=C(O)/C(=C/c4ccc(Cl)c(C(F)(F)F)c4)OC3=O)cc2)cc1` [Example 123], the IC50 is above 50.1 µM.

In the case of `CCOc1ccc(-c2ccc(C3=C(O)/C(=C/c4ccc(Cl)c(C(F)(F)F)c4)OC3=O)cc2)cc1` [Example 124], the IC50 is above 51.3 µM.

Consider `O=C1O/C(=C\c2cc(C(F)(F)F)ccc2Cl)C(O)=C1c1ccc(-c2ccccc2)cc1` [Example 125], for which it took 45.2 µM to reach half-maximal inhibition (IC50).

The next experiment concerns staphylococci. In words: Minimum inhibitory concentration, microdilution broth method, staphylococci. In kind it is cell-based. The note with it: Staphylococcus aureus, S. aureus GC 1131; Mueller-Hinton broth, 18-22 hours at 35° C.; read-out: MIC S. aureus GC 1131. The gist of the method: (§3)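 MIC by microdilution, NCCLS M7-A5. Media: MH broth (staph, enterococci); MH + 5% lysed horse blood (strep). Strains incl. methicillin-, penicillin- and/or vancomycin-resistant clinical isolates.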
On the technique in general: In broth dilution the organism is exposed to a series of concentrations in liquid medium.
Take `CC(C)(C)c1ccc(-c2ccc(C3=C(O)/C(=C/c4ccc(Cl)c(C(F)(F)F)c4)OC3=O)cc2)cc1` [Example 123]: the MIC is 16 µg/mL (≈ 32.1 µM).

`CCOc1ccc(-c2ccc(C3=C(O)/C(=C/c4ccc(Cl)c(C(F)(F)F)c4)OC3=O)cc2)cc1` [Example 124]: the MIC was determined as 32 µg/mL (≈ 65.7 µM).

For `O=C1O/C(=C\c2cc(C(F)(F)F)ccc2Cl)C(O)=C1c1ccc(-c2ccccc2)cc1` [Example 125], the MIC came to 2 µg/mL (≈ 4.52 µM).

The experiment is the same for the next values; noted with them: Staphylococcus aureus, S. aureus GC 4543; Mueller-Hinton broth, 18-22 hours at 35° C.; read-out: MIC S. aureus GC 4543.
In the case of `CC(C)(C)c1ccc(-c2ccc(C3=C(O)/C(=C/c4ccc(Cl)c(C(F)(F)F)c4)OC3=O)cc2)cc1` [Example 123], the MIC came out at 16 µg/mL (≈ 32.1 µM).

Take `CCOc1ccc(-c2ccc(C3=C(O)/C(=C/c4ccc(Cl)c(C(F)(F)F)c4)OC3=O)cc2)cc1` [Example 124]: the MIC came out at 32 µg/mL (≈ 65.7 µM).

Consider `O=C1O/C(=C\c2cc(C(F)(F)F)ccc2Cl)C(O)=C1c1ccc(-c2ccccc2)cc1` [Example 125], for which the MIC came to 2 µg/mL (≈ 4.52 µM).

The next experiment deals with enterococci. Kind of experiment: Minimum inhibitory concentration, microdilution broth method, enterococci. In kind it is cell-based. To be noted: Enterococcus faecalis, E. faecalis GC 2242; Mueller-Hinton broth, 18-22 hours at 35° C.; read-out: MIC E. faecalis GC 2242. Put shortly: as §3
`CC(C)(C)c1ccc(-c2ccc(C3=C(O)/C(=C/c4ccc(Cl)c(C(F)(F)F)c4)OC3=O)cc2)cc1` [Example 123]: the MIC is 4 µg/mL (≈ 8.02 µM).

Regarding `CCOc1ccc(-c2ccc(C3=C(O)/C(=C/c4ccc(Cl)c(C(F)(F)F)c4)OC3=O)cc2)cc1` [Example 124], the MIC was 16 µg/mL (≈ 32.9 µM).

On to `O=C1O/C(=C\c2cc(C(F)(F)F)ccc2Cl)C(O)=C1c1ccc(-c2ccccc2)cc1` [Example 125], for which the MIC turned out to be 4 µg/mL (≈ 9.03 µM).

The experiment is the same for the next values; noted with them: Enterococcus faecalis, E. faecalis GC 4555; Mueller-Hinton broth, 18-22 hours at 35° C.; read-out: MIC E. faecalis GC 4555.
As to `CC(C)(C)c1ccc(-c2ccc(C3=C(O)/C(=C/c4ccc(Cl)c(C(F)(F)F)c4)OC3=O)cc2)cc1` [Example 123], the minimal inhibitory concentration (MIC) was 8 µg/mL (≈ 16 µM).

With `CCOc1ccc(-c2ccc(C3=C(O)/C(=C/c4ccc(Cl)c(C(F)(F)F)c4)OC3=O)cc2)cc1` [Example 124], the MIC was determined as 32 µg/mL (≈ 65.7 µM).

In the case of `O=C1O/C(=C\c2cc(C(F)(F)F)ccc2Cl)C(O)=C1c1ccc(-c2ccccc2)cc1` [Example 125], the minimal inhibitory concentration (MIC) worked out at 8 µg/mL (≈ 18.1 µM).

The next experiment relates to Streptococci. Kind of experiment: Minimum inhibitory concentration, microdilution broth method, streptococci. In kind it is cell-based. The note with it: S. pneumo GC 1894; Mueller-Hinton broth with 5% horse blood, 18-22 hours at 35° C. Put shortly:
as §3
On to `CC(C)(C)c1ccc(-c2ccc(C3=C(O)/C(=C/c4ccc(Cl)c(C(F)(F)F)c4)OC3=O)cc2)cc1` [Example 123], for which 0.5 µg/mL (≈ 1 µM) was the least that counted as inhibitory (MIC).

Turning to `CCOc1ccc(-c2ccc(C3=C(O)/C(=C/c4ccc(Cl)c(C(F)(F)F)c4)OC3=O)cc2)cc1` [Example 124], it took 1 µg/mL (≈ 2.05 µM) to inhibit growth (MIC).

Molecule `O=C1O/C(=C\c2cc(C(F)(F)F)ccc2Cl)C(O)=C1c1ccc(-c2ccccc2)cc1` [Example 125] gave an MIC of 0.5 µg/mL (≈ 1.13 µM).

For orientation: IC50 means the concentration at which inhibition is half-maximal. In general, MIC refers to the least concentration at which growth counts as inhibited.
